Measurements published in patent US20110275559A1, “Long-Acting Y2 and/or Y4 Receptor Agonists” (Novo Nordisk A/S, priority 2008, published 2011).
pEC50: −log10 of the molar value. Read-outs that look alike come from different tables or passages of the source. Blank lines part the entries; values can stand above or below the molecule they belong to. *1 amine or outer side, *2 acyl side, *3 side chain or, on linkers, in order; H or OH if unused. Where a SMILES comes first, the peptide text is derived from it. Where no end group is shown, it is not given here. Side-chain parts run from the residue outwards. The star is where a group is joined. C20 diacid = O=C(O)CCCCCCCCCCCCCCCCCCC(=O)*; γGlu = O=C(O)[C@H](CCC(=O)[*:2])N[*:1]; Trx = NC[C@H]1CC[C@H](C(=O)O)CC1; AEEA = NCCOCCOCC(=O)O

Assays:
Y4 receptor = target: T1, Y4 receptor (Homo sapiens, UniProt P50391); assay: Y4 receptor ACTOne based FLIPR assay (cAMP biosensor); type: cell-based
T1 construct: host or cells: ACTOne HEK-293 cells
Text: (§1) ACTOne™ is an easily scaleable cAMP biosensor HTS platform for measurement of Gs and Gi coupled 7™ receptor signalling from BD Biosciences (San Jose, Calif.). The cells express a biosensor developed around a modified rat olfactory cyclic nucleotide gated (CNG) calcium channel—a fairly non-discriminatory ion channel that responds to cAMP and cGMP. The CNG has been engineered to be cAMP selective and thus function as a cAMP responsive biosensor that signals through calcium or membrane potential responsive dyes. Y2 or Y4 receptor expressing ACTOne HEK-293 cells are obtained from BD Biosciences. The cells are loaded with a calcium responsive dye that only distributes in the cytoplasm. Probenecid, an inhibitor of the organic anion transporter is added to prevent the dye from leaving the cell. A phosphodiesterase inhibitor is added to prevent formatted cAMP from being degraded. Isoproterenol (an β1/β2 agonist) is added to activate the adenylate cyclase. When an Y2 or Y4 receptor agonist is added, the adenylate cyclase is inactivated. The decreased calcium concentration in the cytoplasm is then detected as an increase in fluorescence. Together with the test substance, Isoproterenol at a concentration matching EC80, is added to all wells. • The cells are plated out in Greiner 384-well plates. […] The plates are covered with tinfoil to avoid light (the dye can be excited by the daylight, which results in higher baseline and variation). • The FLIPR (FLIPRtetra from Molecular Devices, CA, USA) adds 1 μl sample and 1 μl isoproterenol (0.05 μM final concentration) at the same time. • The fluorescence signal from the wells is measured 330 seconds after sample addition on the FLIPR.

Y2 receptor = target: T2, Y2 receptor (Homo sapiens, UniProt P49146); assay: Y2 receptor ACTOne based FLIPR assay (cAMP biosensor); type: cell-based
T2 construct: host or cells: ACTOne HEK-293 cells
T2 sequence (P49146 1-381): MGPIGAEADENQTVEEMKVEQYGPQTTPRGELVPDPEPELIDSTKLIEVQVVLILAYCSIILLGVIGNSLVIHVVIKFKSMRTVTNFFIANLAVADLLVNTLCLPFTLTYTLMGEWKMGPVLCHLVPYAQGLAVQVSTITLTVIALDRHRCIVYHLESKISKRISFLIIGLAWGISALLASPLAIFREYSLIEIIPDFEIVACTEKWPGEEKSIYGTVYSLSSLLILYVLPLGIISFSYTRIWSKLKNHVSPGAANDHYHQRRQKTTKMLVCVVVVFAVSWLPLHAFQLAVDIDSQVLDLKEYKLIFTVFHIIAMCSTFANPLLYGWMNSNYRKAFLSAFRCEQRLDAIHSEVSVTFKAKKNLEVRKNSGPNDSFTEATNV
Text: as §1

[1] = Mini-pig PK assay (plasma half-life); conditions: Göttingen, minipig, iv
Outline: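 Catheterised mini-pigs received compound i.v. at 10 nmol/kg in pH 4.0 phosphate/NaCl/tween vehicle, or alternatively i.v. or s.c. at 1–30 nmol/kg in pH 8.0 K2HPO4/tween. Stabilised plasma was sampled up to 13 days and assayed by LC-MS (LLOQ 2 nM). Half-life came from non-compartmental analysis of individual animal profiles.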

T1 sequence (P50391 whole entry): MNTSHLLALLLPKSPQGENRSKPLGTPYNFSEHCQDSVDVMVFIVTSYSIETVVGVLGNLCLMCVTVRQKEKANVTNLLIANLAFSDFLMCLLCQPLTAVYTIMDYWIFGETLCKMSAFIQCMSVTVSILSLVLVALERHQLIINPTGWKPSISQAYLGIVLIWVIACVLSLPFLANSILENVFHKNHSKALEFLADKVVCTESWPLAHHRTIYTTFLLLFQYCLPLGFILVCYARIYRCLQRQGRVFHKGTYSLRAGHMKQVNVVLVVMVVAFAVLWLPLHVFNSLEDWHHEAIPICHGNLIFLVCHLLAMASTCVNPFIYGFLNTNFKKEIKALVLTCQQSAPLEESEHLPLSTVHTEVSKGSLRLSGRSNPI

Molecule: CC[C@H](C)[C@H](NC(=O)[C@H](Cc1ccc(O)cc1)NC(=O)[C@H](CCCNC(=N)N)NC(=O)[C@H](CCCNC(=N)N)NC(=O)[C@H](CC(C)C)NC(=O)[C@H](CC(=O)O)NC(=O)[C@H](C)NC(=O)[C@H](C)NC(=O)[C@H](Cc1ccc(O)cc1)NC(=O)[C@H](CCC(N)=O)NC(=O)[C@H](C)NC(=O)[C@H](CC(C)C)NC(=O)[C@H](CCC(N)=O)NC(=O)[C@H](CCC(=O)O)NC(=O)[C@@H]1CCCN1C(=O)[C@H](CCCCNC(=O)COCCOCCNC(=O)COCCOCCNC(=O)CC[C@H](NC(=O)[C@H]1CC[C@H](CNC(=O)CCCCCCCCCCCCCCCCCCC(=O)O)CC1)C(=O)O)NC(=O)[C@H](C)NC(=O)[C@H](CC(=O)O)NC(=O)[C@H](CC(N)=O)NC(=O)CNC(=O)[C@@H]1CCCN1C(=O)[C@H](Cc1ccc(O)cc1)NC(=O)[C@@H](NC(=O)[C@@H]1CCCN1C(=O)[C@H](CCC(=O)O)NC(=O)[C@H](CC(C)C)NC(=O)[C@@H]1CCCN1C(=O)[C@H](C)N)C(C)C)C(=O)N[C@@H](CC(N)=O)C(=O)N[C@@H](CC(C)C)C(=O)N[C@H](C(=O)N[C@H](C(=O)N[C@@H](CCCNC(=N)N)C(=O)N1CCC[C@H]1C(=O)N[C@@H](CCCNC(=N)N)C(=O)N[C@@H](Cc1ccc(O)cc1)C(N)=O)[C@@H](C)O)C(C)C [SEQ ID NO: 14, N-epsilon13-[2-(2-{2-[2-(2-{2-[(S)-4-Carboxy-4-({trans-4-[(19-carboxynonadecanoylamino)methyl]cyclohexanecarbonyl}amino)butyrylamino]-eth-oxy}ethoxy)acetylamino]ethoxy}ethoxy)acetyl][Asn10,Asp11,Lys13,Leu17,Leu30,Val31]hPP(1-36)] (H-APLEPVYPGNDAK([AEEA-AEEA-γGlu-Trx-C20 diacid])PEQLAQYAADLRRYINLVTRPRY-NH2; N-terminus and C-terminus assumed)
pEC50 (Y4 receptor): 7.74

Molecule: CC[C@H](C)[C@H](NC(=O)[C@H](Cc1ccc(O)cc1)NC(=O)[C@H](CCCNC(=N)N)NC(=O)[C@H](CCCNC(=N)N)NC(=O)[C@H](CC(C)C)NC(=O)[C@H](CC(=O)O)NC(=O)[C@H](C)NC(=O)[C@H](C)NC(=O)[C@H](Cc1ccc(O)cc1)NC(=O)[C@H](CCC(N)=O)NC(=O)[C@H](C)NC(=O)[C@H](CC(C)C)NC(=O)[C@H](CCC(N)=O)NC(=O)[C@H](CCC(=O)O)NC(=O)[C@@H]1CCCN1C(=O)[C@@H](NC(=O)[C@H](C)NC(=O)[C@H](CC(N)=O)NC(=O)[C@H](CC(=O)O)NC(=O)CNC(=O)[C@@H]1CCCN1C(=O)[C@H](Cc1ccc(O)cc1)NC(=O)[C@@H](NC(=O)[C@@H]1CCCN1C(=O)[C@H](CCC(=O)O)NC(=O)[C@H](CC(C)C)NC(=O)[C@@H]1CCCN1C(=O)[C@H](C)NC(=O)COCCOCCNC(=O)COCCOCCNC(=O)CC[C@H](NC(=O)[C@H]1CC[C@H](CNC(=O)CCCCCCCCCCCCCCCCCCC(=O)O)CC1)C(=O)O)C(C)C)[C@@H](C)O)C(=O)N[C@@H](CC(N)=O)C(=O)N[C@@H](CC(C)C)C(=O)N[C@@H](CC(C)C)C(=O)N[C@H](C(=O)N[C@@H](CCCNC(=N)N)C(=O)N1CCC[C@H]1C(=O)N[C@@H](CCCNC(=N)N)C(=O)N[C@@H](Cc1ccc(O)cc1)C(N)=O)[C@@H](C)O [SEQ ID NO: 75, N-alfa-[2-(2-{2-[2-(2-{2-[(S)-4-Carboxy-4-({trans-4-[(19-carboxynonadecanoylamino)methyl]cyclohexanecarbonyl}amino)butyrylamino]-ethoxy}ethoxy)acetylamino]ethoxy}ethoxy)acetyl][Leu17,Leu30]hPP1-36] ({C20 diacid-Trx-γGlu-AEEA-AEEA}-APLEPVYPGDNATPEQLAQYAADLRRYINLLTRPRY-NH2; C-terminus assumed)
pEC50 (Y2 receptor): < 6.00
half-life ([1]; in vivo, 10 nmol/kg): 2880 min

pEC50 (Y2 receptor; Table 2, PP analogues, ACTOne HEK-293 cells, read-out: Y2 cAMP EC50): < 6.00
half-life ([1]; 50 nmol/kg): 33 min
Molecule: PLEPVYPGDNATPEQLAQYAADLRRYINLLTRPRY-NH2 (C-terminus assumed) [SEQ ID NO: 73, [Leu17,Leu30]hPP2-36, reference compound]

Molecule: CC[C@H](C)[C@H](NC(=O)[C@H](Cc1ccc(O)cc1)NC(=O)[C@H](CCCNC(=N)N)NC(=O)[C@H](CCCNC(=N)N)NC(=O)[C@H](CC(C)C)NC(=O)[C@H](CC(=O)O)NC(=O)[C@H](C)NC(=O)[C@H](C)NC(=O)[C@H](Cc1ccc(O)cc1)NC(=O)[C@H](CCC(N)=O)NC(=O)[C@H](C)NC(=O)[C@H](CC(C)C)NC(=O)[C@H](CCC(N)=O)NC(=O)[C@H](CCC(=O)O)NC(=O)[C@@H]1CCCN1C(=O)[C@H](CCCCNC(=O)COCCOCCNC(=O)COCCOCCNC(=O)CC[C@H](NC(=O)[C@H]1CC[C@H](CNC(=O)CCCCCCCCCCCCCCCCCCC(=O)O)CC1)C(=O)O)NC(=O)[C@H](C)NC(=O)[C@H](CC(N)=O)NC(=O)[C@H](CC(=O)O)NC(=O)CNC(=O)[C@@H]1CCCN1C(=O)[C@H](Cc1ccc(O)cc1)NC(=O)[C@@H](NC(=O)[C@@H]1CCCN1C(=O)[C@H](CCC(=O)O)NC(=O)[C@H](CC(C)C)NC(=O)[C@@H]1CCCN1C(=O)[C@H](C)N)C(C)C)C(=O)N[C@@H](CC(N)=O)C(=O)N[C@H](C(=O)N[C@@H](CC(C)C)C(=O)N[C@H](C(=O)N[C@@H](CCCNC(=N)N)C(=O)N[C@@H](CCC(N)=O)C(=O)N[C@@H](CCCNC(=N)N)C(=O)N[C@@H](Cc1ccc(O)cc1)C(N)=O)[C@@H](C)O)C(C)C [SEQ ID NO: 17, N-epsilon13-[2-(2-{2-[2-(2-{2-[(S)-4-Carboxy-4-({trans-4-[(19-carboxynonadecanoylamino)methyl]cyclohexanecarbonyl}amino)butyrylamino]-ethoxy}ethoxy)acetylamino]ethoxy}ethoxy)acetyl][Lys13,Leu17,Val30,Gln34]hPP(1-36)] (H-APLEPVYPGDNAK([AEEA-AEEA-γGlu-Trx-C20 diacid])PEQLAQYAADLRRYINVLTRQRY-NH2; N-terminus and C-terminus assumed)
pEC50 (Y4 receptor): 8.15

Molecule: CC[C@H](C)[C@H](NC(=O)[C@H](Cc1ccc(O)cc1)NC(=O)[C@H](CCCNC(=N)N)NC(=O)[C@H](CCCNC(=N)N)NC(=O)[C@H](CC(C)C)NC(=O)[C@H](CC(=O)O)NC(=O)[C@H](C)NC(=O)[C@H](C)NC(=O)[C@H](Cc1ccc(O)cc1)NC(=O)[C@H](CCC(N)=O)NC(=O)[C@H](C)NC(=O)[C@H](CC(C)C)NC(=O)[C@H](CCC(N)=O)NC(=O)[C@H](CCC(=O)O)NC(=O)[C@@H]1CCCN1C(=O)[C@H](CCCCNC(=O)COCCOCCNC(=O)COCCOCCNC(=O)CC[C@H](NC(=O)[C@H]1CC[C@H](CNC(=O)CCCCCCCCCCCCCCCCCCC(=O)O)CC1)C(=O)O)NC(=O)[C@H](C)NC(=O)[C@H](CC(N)=O)NC(=O)[C@H](CC(=O)O)NC(=O)CNC(=O)[C@@H]1CCCN1C(=O)[C@H](Cc1ccc(O)cc1)NC(=O)[C@@H](NC(=O)[C@@H]1CCCN1C(=O)[C@H](CCC(=O)O)NC(=O)[C@H](CC(C)C)NC(=O)[C@@H]1CCCN1C(=O)[C@H](C)N)C(C)C)C(=O)N[C@@H](CC(N)=O)C(=O)N[C@@H](CC(C)C)C(=O)N[C@@H](CC(C)C)C(=O)N[C@H](C(=O)N[C@@H](CCCNC(=N)N)C(=O)N[C@@H](CCC(N)=O)C(=O)N[C@@H](CCCNC(=N)N)C(=O)N[C@@H](Cc1ccc(O)cc1)C(N)=O)[C@@H](C)O [SEQ ID NO: 4] (H-APLEPVYPGDNAK([AEEA-AEEA-γGlu-Trx-C20 diacid])PEQLAQYAADLRRYINLLTRQRY-NH2; N-terminus and C-terminus assumed)
pEC50 (Y4 receptor): 7.74
